Measured values: ChEMBL document CHEMBL1131396, “Structure-activity studies related to ABT-594, a potent nonopioid analgesic agent: effect of pyridine and azetidine ring substitutions on nicotinic acetylcholine receptor binding affinity and analgesic activity in mice” (Bioorg Med Chem Lett, 1998)

Key:
Mus musculus = organism: Mus musculus; assay: Analgesic activity in a mouse hot plate assay; assay type: functional
[1] = biological target: Neuronal acetylcholine receptor; alpha4/beta2 (Rattus norvegicus, UniProt P09483+P12390); assay: Binding affinity towards Nicotinic acetylcholine receptor alpha4-beta2 in rat brain using [3H]-cytisine as radioligand; assay type: tissue-based
Neuronal acetylcholine receptor; alpha4/beta2, sequence (P09483 whole entry): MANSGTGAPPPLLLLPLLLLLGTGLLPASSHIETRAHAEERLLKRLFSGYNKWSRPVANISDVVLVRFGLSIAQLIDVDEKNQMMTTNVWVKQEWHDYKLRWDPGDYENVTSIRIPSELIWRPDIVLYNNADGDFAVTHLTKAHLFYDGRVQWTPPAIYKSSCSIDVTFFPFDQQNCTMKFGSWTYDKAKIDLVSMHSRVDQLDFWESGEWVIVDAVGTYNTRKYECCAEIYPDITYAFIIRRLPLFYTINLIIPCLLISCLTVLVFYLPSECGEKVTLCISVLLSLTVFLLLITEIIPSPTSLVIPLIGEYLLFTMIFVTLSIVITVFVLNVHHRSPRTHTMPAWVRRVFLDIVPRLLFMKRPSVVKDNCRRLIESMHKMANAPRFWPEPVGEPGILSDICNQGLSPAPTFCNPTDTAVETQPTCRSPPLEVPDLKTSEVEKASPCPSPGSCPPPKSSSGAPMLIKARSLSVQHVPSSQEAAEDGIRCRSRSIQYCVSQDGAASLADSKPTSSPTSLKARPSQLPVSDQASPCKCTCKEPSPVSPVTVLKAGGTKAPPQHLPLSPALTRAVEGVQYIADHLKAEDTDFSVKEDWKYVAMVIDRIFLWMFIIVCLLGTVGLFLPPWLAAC
Neuronal acetylcholine receptor; alpha4/beta2, sequence (P12390 whole entry): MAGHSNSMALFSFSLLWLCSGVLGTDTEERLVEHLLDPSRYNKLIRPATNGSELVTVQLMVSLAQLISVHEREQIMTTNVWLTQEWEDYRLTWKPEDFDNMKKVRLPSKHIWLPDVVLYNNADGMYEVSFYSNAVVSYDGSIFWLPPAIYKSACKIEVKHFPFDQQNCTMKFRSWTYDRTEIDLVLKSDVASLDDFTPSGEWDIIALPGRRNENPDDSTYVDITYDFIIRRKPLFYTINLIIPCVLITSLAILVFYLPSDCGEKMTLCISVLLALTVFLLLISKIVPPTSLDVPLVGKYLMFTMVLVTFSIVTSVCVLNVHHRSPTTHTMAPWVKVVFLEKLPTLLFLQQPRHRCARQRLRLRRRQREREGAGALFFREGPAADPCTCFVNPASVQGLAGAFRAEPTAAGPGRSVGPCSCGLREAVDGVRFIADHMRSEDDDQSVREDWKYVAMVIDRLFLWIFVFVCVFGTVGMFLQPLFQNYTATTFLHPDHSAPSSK

IMR-32 [2] = assay: Maximal response of compound at 10 uM concentration in an in vitro [86Rb+] release assay using IMR-32 cells; assay type: functional, Homo sapiens
IMR-32 [3] = assay: Maximal response of compound was determined in an in vitro [86Rb+] release assay using IMR-32 cells; assay type: functional, Homo sapiens
IMR-32 [4] = assay: Maximal response of compound at 1 uM concentration in an in vitro [86Rb+] release assay using IMR-32 cells; assay type: functional, Homo sapiens
IMR-32 [5] = assay: Maximal response of compound at concentration 3 uM concentration in an in vitro [86Rb+] release assay using IMR-32 cells; assay type: functional, Homo sapiens

Row | Compound | MED (Mus musculus) | Ki [1] | also measured
1 | Brc1cncc(OC[C@@H]2CCN2)c1 | >19 µM/kg | 0.18 nM | –
2 | CCc1cncc(OC[C@@H]2CCN2)c1 | >62 µM/kg | 0.1 nM | Max response (IMR-32 [2]): 90%
3 | C[C@@H]1CN[C@H]1COc1ccc(Cl)nc1 | – | 7.6 nM | –
4 | Brc1ccc(OC[C@@H]2CCN2)cn1 | >6.2 µM/kg | 0.021 nM | –
5 | O=[N+]([O-])c1cncc(OC[C@@H]2CCN2)c1 | 62 µM/kg | – | –
6 | N#Cc1cncc(OC[C@@H]2CCN2)c1 | >6.2 µM/kg | 0.025 nM | –
7 | c1ccc(-c2ccc(OC[C@@H]3CCN3)cn2)cc1 | >62 µM/kg | 2.3 nM | –
8 | Clc1ccncc1OC[C@H]1CCN1 | >6.2 µM/kg | 12 nM | –
9 | CC(=O)NCc1cncc(OC[C@@H]2CCN2)c1 | >62 µM/kg | 0.54 nM | –
10 | Clc1ccncc1OC[C@@H]1CCN1 | >62 µM/kg | 260 nM | –
11 | Nc1cncc(OC[C@@H]2CCN2)c1 | >62 µM/kg | 0.082 nM | –
12 | Cc1ncccc1OC[C@@H]1CCN1 | >62 µM/kg | 1.36 nM | –
13 | Brc1ccc(OC[C@H]2CCN2)cn1 | 0.62 µM/kg | – | –
14 | COc1ccc(OC[C@H]2CCN2)cn1 | >62 µM/kg | – | –
15 | Cc1cncc(OC[C@H]2CCN2)c1 | 62 µM/kg | 0.16 nM | –
16 | c1cncc(OC[C@@H]2CCN2)c1 | >6.2 µM/kg | 0.052 nM | Max response (IMR-32 [3]): 113%
17 | Fc1ncccc1OC[C@H]1CCN1 | >62 µM/kg | – | –
18 | Clc1ccc(OC[C@H]2CCN2)cn1 [TEBANICLINE] | 0.62 µM/kg | 0.04 nM | –
19 | CC1(C)CN[C@H]1COc1ccc(Cl)nc1 | – | 37 nM | –
20 | Fc1ncccc1OC[C@@H]1CCN1 | 1.9 µM/kg | – | –
21 | Oc1cncc(OC[C@H]2CCN2)c1 | >62 µM/kg | 0.088 nM | –
22 | C=Cc1ccc(OC[C@@H]2CCN2)cn1 | >62 µM/kg | 1.25 nM | –
23 | Clc1ncc(OC[C@@H]2CCN2)cc1Br | 1.9 µM/kg | 0.015 nM | –

Row | Compound | MED (Mus musculus) | Ki [1] | also measured
24 | Clc1ncc(OC[C@@H]2CCN2)cc1-c1ccccc1 | >6.2 µM/kg | 0.022 nM | Max response (IMR-32 [4]): 92%
25 | COc1ccc(OC[C@@H]2CCN2)cn1 | >62 µM/kg | 1.3 nM | –
26 | Clc1ncccc1OC[C@H]1CCN1 | 62 µM/kg | – | –
27 | Clc1ncccc1OC[C@@H]1CCN1 | 62 µM/kg | – | –
28 | CCCc1cncc(OC[C@@H]2CCN2)c1 | 62 µM/kg | 0.039 nM | –
29 | Clc1ccc(OC[C@@H]2CCN2)cn1 | 0.62 µM/kg | 0.04 nM | Max response (IMR-32 [3]): 166%
30 | Clc1cc(OC[C@@H]2CCN2)cnc1Cl | 0.62 µM/kg | 0.023 nM | –
31 | Fc1ccc(OC[C@@H]2CCN2)cn1 | 6.2 µM/kg | 0.057 nM | –
32 | CCOc1cncc(OC[C@@H]2CCN2)c1 | 62 µM/kg | 0.039 nM | –
33 | N#Cc1ccc(OC[C@@H]2CCN2)cn1 | 62 µM/kg | – | –
34 | Cc1ccc(OC[C@@H]2CCN2)cn1 | 0.62 µM/kg | 0.057 nM | –
35 | Clc1cncc(OC[C@@H]2CCN2)c1 | >6.2 µM/kg | 0.042 nM | –
36 | FC(F)(F)c1cncc(OC[C@@H]2CCN2)c1 | >19 µM/kg | 0.49 nM | –
37 | c1ccc(-c2cncc(OC[C@@H]3CCN3)c2)cc1 | >62 µM/kg | 0.046 nM | Max response (IMR-32 [5]): 45%
38 | Cc1nc(Cl)ccc1OC[C@@H]1CCN1 | >62 µM/kg | 2.4 nM | –
39 | Clc1cncc(OC[C@H]2CCN2)c1 | 62 µM/kg | – | –
40 | CCc1ccc(OC[C@@H]2CCN2)cn1 | >6.2 µM/kg | 19 nM | –
41 | NCc1cncc(OC[C@@H]2CCN2)c1 | >6.2 µM/kg | 4.4 nM | –
42 | Cc1ccc(OC[C@H]2CCN2)cn1 | 6.2 µM/kg | 0.053 nM | –
43 | Fc1cncc(OC[C@@H]2CCN2)c1 | 6.2 µM/kg | 0.076 nM | –
44 | Cc1cncc(OC[C@@H]2CCN2)c1 | >62 µM/kg | 0.047 nM | –
45 | Fc1ccc(OC[C@H]2CCN2)cn1 | 1.9 µM/kg | 0.066 nM | –
